We go through three compounds from US12077503B2, “Substituted cyclic amides and their use as herbicides” (FMC CORPORATION, priority 2015, dated 2024).

SMILES strings stand for the structures. Like-named read-outs stand apart in the source and are kept apart here.

Holding throughout (type): in vivo
For experiment [1], the system named is Galium (catchweed bedstraw, Galium aparine). Briefly: Test A postemergence. The conditions noted are these: Galium, post-emergence, 240 h, 125 g ai/ha, postemergence; visual injury after approximately 10 d; 0 to 100 scale (0 no effect, 100 complete control); read-out: Plant response rating, Galium. In outline:
(§1)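 Greenhouse, ~10 d after spray; visual injury vs untreated controls, 0 = no effect, 100 = complete control. Preemergence: directed soil spray over planted seeds. Postemergence: plants 2–10 cm, 1–2 leaf stage. Loam/sand blend. Compound in non-phytotoxic solvent with surfactant.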

Experiment [2] deals with Kochia (Kochia scoparia). Briefly: Test A postemergence. The conditions noted are these: Bassia scoparia, post-emergence, 240 h, 125 g ai/ha, postemergence; visual injury after approximately 10 d; 0 to 100 scale (0 no effect, 100 complete control); read-out: Plant response rating, Kochia. In outline: as §1
The next experiment has as its system corn (Zea mays). The experiment in a line: Test A postemergence. The conditions noted are these: Zea mays, post-emergence, 240 h, 125 g ai/ha, postemergence; visual injury after approximately 10 d; 0 to 100 scale (0 no effect, 100 complete control). In outline:
as §1

Experiment [3] has as its system pigweed (Amaranthus retroflexus). The experiment in a line: Test A postemergence. The following applies: Amaranthus retroflexus, post-emergence, 240 h, 125 g ai/ha, postemergence; visual injury after approximately 10 d; 0 to 100 scale (0 no effect, 100 complete control); read-out: Plant response rating, Pigweed. Put shortly: as §1
Experiment [4] relates to ragweed (common ragweed, Ambrosia elatior). The experiment in a line: Test A postemergence. The conditions noted are these: Ambrosia artemisiifolia, post-emergence, 240 h, 125 g ai/ha, postemergence; visual injury after approximately 10 d; 0 to 100 scale (0 no effect, 100 complete control); read-out: Plant response rating, Ragweed. In outline:
as §1

For experiment [5], the system named is blackgrass (Alopecurus myosuroides). The experiment in a line: Test A postemergence. The conditions noted are these: Alopecurus myosuroides, post-emergence, 240 h, 125 g ai/ha, postemergence; visual injury after approximately 10 d; 0 to 100 scale (0 no effect, 100 complete control); read-out: Plant response rating, Blackgrass. Put shortly: as §1
Experiment [6] relates to barnyardgrass (Echinochloa crus-galli). The experiment in a line: Test A postemergence. The following applies: Echinochloa crus-galli, post-emergence, 240 h, 125 g ai/ha, postemergence; visual injury after approximately 10 d; 0 to 100 scale (0 no effect, 100 complete control); read-out: Plant response rating, Barnyardgrass. Put shortly:
as §1

The test system of experiment [7] is wheat (Triticum aestivum). The experiment in a line: Test A postemergence. The following applies: Triticum aestivum, post-emergence, 240 h, 125 g ai/ha, postemergence; visual injury after approximately 10 d; 0 to 100 scale (0 no effect, 100 complete control); read-out: Plant response rating, Wheat. In outline: as §1
Experiment [8] has as its system ryegrass, Italian (Italian ryegrass, Lolium multiflorum). Briefly: Test A postemergence. The conditions noted are these: Lolium multiflorum, post-emergence, 240 h, 125 g ai/ha, postemergence; visual injury after approximately 10 d; 0 to 100 scale (0 no effect, 100 complete control); read-out: Plant response rating, Ryegrass, Italian. In outline: as §1
The test system of experiment [9] is giant foxtail (Setaria faberii). Briefly: Test A postemergence. The conditions noted are these: Setaria faberi, post-emergence, 240 h, 125 g ai/ha, postemergence; visual injury after approximately 10 d; 0 to 100 scale (0 no effect, 100 complete control); read-out: Plant response rating, Foxtail, Giant. In outline: as §1
Experiment [10] deals with Kochia (Kochia scoparia). Briefly: Test A preemergence. The conditions noted are these: Bassia scoparia, pre-emergence, 240 h; for pest or weed control at 125 g/ha: 125 g ai/ha, visual rating after approx. 10 d, 0 to 100 scale where 0 is no effect and 100 is complete control; for pest or weed control at 500 g/ha: 500 g ai/ha. Put shortly:
as §1

Experiment [11] concerns pigweed (Amaranthus retroflexus). The experiment in a line: Test A preemergence. The conditions noted are these: Amaranthus retroflexus, pre-emergence, 240 h; for pest or weed control at 125 g/ha: 125 g ai/ha, visual rating after approx. 10 d, 0 to 100 scale where 0 is no effect and 100 is complete control; for pest or weed control at 500 g/ha: 500 g ai/ha.
Experiment [12] relates to ragweed (common ragweed, Ambrosia elatior). The experiment in a line: Test A preemergence. The conditions noted are these: Ambrosia artemisiifolia, pre-emergence, 240 h; for pest or weed control at 125 g/ha: 125 g ai/ha, visual rating after approx. 10 d, 0 to 100 scale where 0 is no effect and 100 is complete control; for pest or weed control at 500 g/ha: 500 g ai/ha. Put shortly: as §1

Experiment [13] has as its system barnyardgrass (Echinochloa crus-galli). The experiment in a line: Test A preemergence. The following applies: Echinochloa crus-galli, pre-emergence, 240 h; for pest or weed control at 125 g/ha: 125 g ai/ha, visual rating after approx. 10 d, 0 to 100 scale where 0 is no effect and 100 is complete control; for pest or weed control at 500 g/ha: 500 g ai/ha. Put shortly: as §1

Experiment [14] concerns ryegrass, Italian (Italian ryegrass, Lolium multiflorum). Briefly: Test A preemergence. The conditions noted are these: Lolium multiflorum, pre-emergence, 240 h; for pest or weed control at 125 g/ha: 125 g ai/ha, preemergence, visual rating after approx. 10 d, 0 to 100 scale where 0 is no effect and 100 is complete control, read-out: Plant response rating, Ryegrass, Italian. In outline:
as §1

Experiment [15] deals with giant foxtail (Setaria faberii). Briefly: Test A preemergence. The conditions noted are these: Setaria faberi, pre-emergence, 240 h; for pest or weed control at 125 g/ha: 125 g ai/ha, visual rating after approx. 10 d, 0 to 100 scale where 0 is no effect and 100 is complete control; for pest or weed control at 500 g/ha: 500 g ai/ha. Put shortly: as §1
Where [16] appears, read: preemergence, read-out: Plant response rating, Kochia.
The mark [17] stands for this setting: preemergence, 0 to 100 scale, 0 = no effect, 100 = complete control, read-out: Plant response rating, Kochia.
[18] abbreviates: preemergence, read-out: Plant response rating, Pigweed.
[19] abbreviates: preemergence, 0 to 100 scale, 0 = no effect, 100 = complete control, read-out: Plant response rating, Pigweed.
Where [20] appears, read: preemergence, read-out: Plant response rating, Ragweed.
The mark [21] stands for this setting: preemergence, 0 to 100 scale, 0 = no effect, 100 = complete control, read-out: Plant response rating, Ragweed.
Setting [22] is: preemergence, read-out: Plant response rating, Barnyardgrass.
The mark [23] stands for this setting: preemergence, 0 to 100 scale, 0 = no effect, 100 = complete control, read-out: Plant response rating, Barnyardgrass.
The mark [24] stands for this setting: preemergence, read-out: Plant response rating, Foxtail, Giant.
Setting [25] is: preemergence, 0 to 100 scale, 0 = no effect, 100 = complete control, read-out: Plant response rating, Foxtail, Giant.

For the compound `CCc1ccc([C@H]2CNC(=S)[C@@H]2C(=O)Nc2cccc(F)c2C)cc1` [Compound 761], the pest or weed control at 125 g/ha stood at 0% in experiment [1]; 0% in the experiment on Kochia (Kochia scoparia) [2]; 0% in [3]; 0% in experiment [4]; 0% in experiment [5]; 70% in experiment [6]. Besides, the pest or weed control at 125 g/ha worked out at 0% in experiment [8]; 60% in [9]; 30% with Kochia (Kochia scoparia) [10] (setting [16]); 0% in experiment [11] (setting [18]); 0% in experiment [12] (setting [20]); 90% in experiment [13] (setting [22]). The pest or weed control at 125 g/ha in experiment [14] amounted to 0%; in experiment [15] (setting [24]) it was 60%. This compound also had a Corn plant response rating (crop injury, 0 = no effect, 100 = complete kill) at 125 g/ha in the experiment on corn (Zea mays) of 0%. In [7], the plant injury at 125 g/ha was 0%. For the same compound, the pest or weed control at 500 g/ha came to 80% in the experiment with Kochia (Kochia scoparia) [10] (setting [17]); 0% in experiment [11] (setting [19]); 0% in [12] (setting [21]); 100% in experiment [13] (setting [23]); 90% in [15] (setting [25]).

Take `O=C1NC[C@H](c2ccc(OC(F)F)cc2)[C@H]1C(=O)Nc1ccccc1F` [Compound 778]: the pest or weed control at 125 g/ha amounted to 60% in [1]; 60% with Kochia (Kochia scoparia) [2]; 10% in experiment [3]; 0% in experiment [4]; 10% in [5]; 80% in experiment [6]. Moreover, the pest or weed control at 125 g/ha in experiment [8] is 20%; in [9] it was 70%; in the experiment with Kochia (Kochia scoparia) [10] (setting [16]), 80%; in [11] (setting [18]), 30%; in experiment [12] (setting [20]), 40%; in experiment [13] (setting [22]), 70%. Further, the results for the pest or weed control at 125 g/ha in experiment [14] and in experiment [15] (setting [24]) were 0% and 90%, respectively. The compound further returned a Corn plant response rating (crop injury, 0 = no effect, 100 = complete kill) at 125 g/ha with corn (Zea mays) of 0%. Further, the plant injury at 125 g/ha in experiment [7] turned out to be 0%. Also, the pest or weed control at 500 g/ha in the experiment on Kochia (Kochia scoparia) [10] (Preemergence, visual injury vs untreated controls after approximately 10 d, read-out: Kochia plant response rating (0 to 100 scale where 0 is no effect and 100 is complete control)) amounted to 80%; in [11] (Preemergence, visual injury vs untreated controls after approximately 10 d, read-out: Pigweed plant response rating (0 to 100 scale where 0 is no effect and 100 is complete control)), 80%; in [12] (Preemergence, visual injury vs untreated controls after approximately 10 d, read-out: Ragweed plant response rating (0 to 100 scale where 0 is no effect and 100 is complete control)) it was 60%; in experiment [13] (Preemergence, visual injury vs untreated controls after approximately 10 d, read-out: Barnyardgrass plant response rating (0 to 100 scale where 0 is no effect and 100 is complete control)), 90%; in experiment [14] (500 g ai/ha, Preemergence, visual injury vs untreated controls after approximately 10 d, read-out: Ryegrass, Italian plant response rating (0 to 100 scale where 0 is no effect and 100 is complete control)), 20%; in experiment [15] (Preemergence, visual injury vs untreated controls after approximately 10 d, read-out: Foxtail, Giant plant response rating (0 to 100 scale where 0 is no effect and 100 is complete control)), 90%.

Take `CCc1ccc([C@H]2CNC(=S)[C@@H]2C(=O)Nc2ccccc2SC)cc1` [Compound 763]: the pest or weed control at 125 g/ha (in experiment [1]; in the experiment on Kochia (Kochia scoparia) [2]; in [3]; in [4]; in [5]; in experiment [6]) was 0% each time. The pest or weed control at 125 g/ha is 0% in [8]; 0% in experiment [9]; 30% in the experiment on Kochia (Kochia scoparia) [10] (setting [16]); 0% in experiment [11] (setting [18]); 0% in experiment [12] (setting [20]); 80% in experiment [13] (setting [22]). Besides, the pest or weed control at 125 g/ha in experiment [14] and in experiment [15] (setting [24]) was 0% each time. Further, the Corn plant response rating (crop injury, 0 = no effect, 100 = complete kill) at 125 g/ha in the experiment with corn (Zea mays) was determined as 0%. Also, in experiment [7], the plant injury at 125 g/ha amounted to 0%. The pest or weed control at 500 g/ha with Kochia (Kochia scoparia) [10] (setting [17]) was found to be 30%; in experiment [11] (setting [19]), 30%; in [12] (setting [21]), 0%; in [13] (setting [23]) it was 80%; in experiment [15] (setting [25]), 50%.
